Results on eight compounds are retold here after US12370208B2, “Adenosine derivative and pharmaceutical composition comprising the same” (Brii Biosciences, Inc., priority 2019, dated 2025).

Series [1] is described as follows: Plasma exposures following oral administration to beagle dogs.
Series [2] in a line: Plasma stability and conversion to EFdA in human plasma. The series is classed as in vitro ADME.
Procedure: The pooled frozen plasma was thawed in a water bath at 37° C. prior to experiment. Plasma was centrifuged at 4000 rpm for 5 min and the clots were removed if any. The pH will be adjusted to 7.4±0.1 if required.
Preparation of test compounds and positive control (propantheline bromide): 1 mM intermediate solution was prepared by diluting 10 μL of the stock solution with 90 μL MeOH; 1 mM intermediate of positive control Propantheline was prepared by diluting 10 μL of the stock solution with 90 μL ultrapure water. 100 μM dosing solution was prepared by diluting 20 μL of the intermediate solution (1 mM) with 180 μL MeOH. 98 μL of blank plasma was spiked with 2 μL of dosing solution (100 μM) to achieve 2 μM of the final concentration in duplicate and samples were incubated at 37° C. in a water bath. At each time point (0, 10, 30, 60 and 120 min), 400 μL of stop solution (0.1% FA in MeOH containing 200 ng/mL tolbutamide and 200 ng/mL Labetalol) was added to precipitate protein and mixed thoroughly. Centrifuged sample plates at 4,000 rpm for 10 min. An aliquot of supernatant (100 μL) was transferred from each well to another plates.
Data analysis: The % remaining of test compound after incubation in plasma was calculated using following equation: % Remaining=100×(PAR at appointed incubation time/PAR at T0 time) where PAR is the peak area ratio of analyte versus internal standard (IS) (LC/MS/MS mobile phase condition: 0.1% Formic Acid in Water/0.1% Formic Acid in Acetonitrile. The appointed incubation time points are T0 (0 min), Tn (n=0, 10, 30, 60, 120 min). Liver S9 Stability
Series [3] in a line: Liver S9 stability and conversion to EFdA in human liver S9. The series is classed as in vitro ADME. The following applies: for Stability in Human Liver S9 Half-life: human liver S9, 37° C.; for Conversion to the target drug: liver S9 assay. The method, then:
Intermediate solution: Dilute 5 μL of compounds or controls (7-ethoxycoumarin) from stock solution (10 mM) with 495 μL MeOH (Conc.: 100 μM, 1% DMSO, 99% MeOH). Stop solution: Cold ACN (including 100 ng/mL Tolbutamide and Labetalol as internal standard). Add 2 μL test compound or control working solution/well to all plates (T0, T5, T10, T20, T30, T60, NCF60) except matrix blank. Add 600 μL/well stop solution (cold in 4° C., including 100 ng/mL Tolbutamide/100 ng/mL Labetalol) to terminate the T0 plate, then put it on ice. Dispense 840 μL/well S9 solution to 96-well plate as reservoir according to plate map. Then add 100 μL/well to every plate by Apricot. Incubate S9 solution and compound at 37° C. for about 10 min except NCF60 and TO. After adding S9 solution and 98 μL PB buffer to NCF60, incubate at 37° C. without pre-warming, start timer 1. After 60 min, add 600 μL/well stop solution to terminate the reaction. After pre-warming, dispense 760 μL/well cofactor solution to 96-well plate as reservoir according to plate map. Then add 98 μL/well to every plate by Apricot to start reaction. Incubate at 37° C., start timer 2, Add 600 μL/well stop solution (cold in 4° C., including 100 ng/mL Tolbutamide and Labetalol) to terminate the reaction. Samples are centrifuged at 4000 rpm for 20 min. While centrifuging, load 8×new 96-well plate with 300 μL HPLC water, then transfer 100 μL supernatant, mix with water for LC/MS/MS, transferred to Bioanalytical Services for LC-MS/MS analysis. Use equation of first order kinetics to calculate t1/2 and CL: Equation of first order kinetics: […]

[4] abbreviates: Prodrug formula 4-A PO 8.25 mg/kg, 12.0 hrs, individual animals 2001-2003.
[5] abbreviates: Prodrug formula 4-A PO 8.25 mg/kg, 24.0 hrs, individual animals 2001-2003.

Where “and” joins values, the source holds several entries; their conditions need not be identical. Equal values may be shown once.

As for `C#C[C@]1(CO)O[C@@H](n2cnc3c(N)nc(F)nc32)C[C@@H]1O` [EFdA, (2R,3S,5R)-5-(6-amino-2-fluoro-9H-purin-9-yl)-2-ethynyl-2-(hydroxymethyl)tetrahydrofuran-3-ol, reference compound], the “EFdA Concentrations in Dog Plasma” value in series [1] (EFdA PO 5 mg/kg, 6.00 hrs, individual animals 4001-4003) is reported as “BQL”; in series [1] (EFdA PO 5 mg/kg, 8.00 hrs, individual animals 4001-4003), “BQL”; in series [1] (EFdA PO 5 mg/kg, 12.0 hrs, individual animals 4001-4003), “BQL”; in series [1] (EFdA PO 5 mg/kg, 24.0 hrs, individual animals 4001-4003), “BQL”. In series [1] (oral EFdA 5 mg/kg, dogs), the “EFdA Exposure in Plasma Cmax” value came to 392 ng/mL. For the same compound, the “EFdA Exposure in Plasma AUC” value in series [1] (oral EFdA 5 mg/kg, dogs, AUC0-24 h) stood at 792 ng·h/mL.

With `C#C[C@]1(COC(=O)NC(C)C)O[C@@H](n2cnc3c(N)nc(F)nc32)C[C@@H]1O` [Formula 2-A, ((2R,3S,5R)-5-(6-amino-2-fluoro-9H-purin-9-yl)-2-ethynyl-3-hydroxytetrahydrofuran-2-yl)methyl isopropylcarbamate], the “Stability in Human Plasma Formation of EFdA” value in series [2] is on record as “No”. Also, the “Stability in Human Liver S9 Formation of EFdA” value in series [3] is listed as “No”.

For `C#C[C@]1(CO)O[C@@H](n2cnc3c(NC(=O)OC(C)C)nc(F)nc32)C[C@@H]1O` [Formula 3-A, isopropyl (9-((2R,4S,5R)-5-ethynyl-4-hydroxy-5-(hydroxymethyl)tetrahydrofuran-2-yl)-2-fluoro-9H-purin-6-yl)carbamate], in series [2], the “Stability in Human Plasma Formation of EFdA” value is listed as “No”. Further, in series [3], the “Stability in Human Liver S9 Formation of EFdA” value is “No” and the “Stability in Human Liver S9 Half-life” value is recorded as “B (B: 50-200 minutes)”.

As to `C#C[C@]1(COC(=O)OCc2oc(=O)oc2C)O[C@@H](n2cnc3c(N)nc(F)nc32)C[C@@H]1O` [Formula 4-A, ((2R,3S,5R)-5-(6-amino-2-fluoro-9H-purin-9-yl)-2-ethynyl-3-hydroxytetrahydrofuran-2-yl)methyl((5-methyl-2-oxo-1,3-dioxol-4-yl)methyl) carbonate], in series [2], the “Stability in Human Plasma Formation of EFdA” value is “Yes”. Also, the “Conversion to the target drug” value in series [2] (human plasma assay) and in series [3] was “can be converted to the target drug efficiently” throughout. In addition, the “Stability in Human Liver S9 Formation of EFdA” value in series [3] is reported as “Yes”. Moreover, the “AUC compared with a dose-equivalent EFdA” value in series [1] (EFdA in dog plasma, oral) was “higher”. Further, the “Cmax compared with a dose-equivalent EFdA” value in series [1] (EFdA in dog plasma, oral) is “higher”. Further, the “Prodrug formula 4-A Concentrations in Dog Plasma” value in series [1] (Prodrug formula 4-A PO 8.25 mg/kg, 0.250 hrs, individual animals 2001-2003, 8.25 mg/kg) is 1.13 ng/mL and 1.63 ng/mL and 1.09 ng/mL; in series [1] (Prodrug formula 4-A PO 8.25 mg/kg, 0.500 hrs, individual animals 2001-2003, 8.25 mg/kg), “BQL (2×) and 1.68 ng/mL”; in series [1] (Prodrug formula 4-A PO 8.25 mg/kg, 1.00 hrs, individual animals 2001-2003, 8.25 mg/kg) it was “BQL (2×) and 1.43 ng/mL”; in series [1] (Prodrug formula 4-A PO 8.25 mg/kg, 2.00 hrs, individual animals 2001-2003), “BQL”; in series [1] (Prodrug formula 4-A PO 8.25 mg/kg, 4.00 hrs, individual animals 2001-2003), “BQL”; in series [1] (Prodrug formula 4-A PO 8.25 mg/kg, 6.00 hrs, individual animals 2001-2003), “BQL”. Further, the “Prodrug formula 4-A Concentrations in Dog Plasma” value in series [1] (Prodrug formula 4-A PO 8.25 mg/kg, 8.00 hrs, individual animals 2001-2003) is reported as “BQL”; in series [1] (setting [4]), “BQL”; in series [1] (setting [5]), “BQL”. The “Prodrug formula 4-A Concentrations in Dog Plasma, Mean” value in series [1] (Prodrug formula 4-A PO 8.25 mg/kg, 0.250 hrs, mean of 3 dogs) was 1.28 ng/mL; in series [1] (Prodrug formula 4-A PO 8.25 mg/kg, 0.500 hrs, Mean column (one animal above BQL)), 1.68 ng/mL; in series [1] (Prodrug formula 4-A PO 8.25 mg/kg, 1.00 hrs, Mean column (one animal above BQL)) it was 1.43 ng/mL. For the same compound, the “EFdA Concentrations in Dog Plasma” value in series [1] (setting [4]) and in series [1] (setting [5]) was “BQL” throughout. Further, the “Prodrug detected in the systemic circulation” value in series [1] (dogs, oral) was “minimal”.

As for `C#C[C@]1(COC(=O)OCc2oc(=O)oc2C)O[C@@H](n2cnc3c(N)nc(F)nc32)C[C@@H]1OC(=O)OCc1oc(=O)oc1C` [Formula 4-C, [(2R,3S,5R)-5-(6-amino-2-fluoro-purin-9-yl)-2-ethynyl-2-[(5-methyl-2-oxo-1,3-dioxol-4-yl)methoxycarbonyloxymethyl]tetrahydrofuran-3-yl] (5-methyl-2-oxo-1,3-dioxol-4-yl)methyl carbonate], in series [2], the “Conversion to the target drug” value is reported as “can be converted to the target drug efficiently” and the “Stability in Human Plasma Formation of EFdA” value is “Yes”. Further, in series [3], the “Stability in Human Liver S9 Formation of EFdA” value is given as “Yes”, the “Stability in Human Liver S9 Half-life” value was “C (C: <50 minutes)” and the “Conversion to the target drug” value is on record as “can be converted to the target drug efficiently”.

As to `C#C[C@]1(COC(=O)NC)O[C@@H](n2cnc3c(N)nc(F)nc32)C[C@@H]1O` [Formula 5-A, ((2R,3S,5R)-5-(6-amino-2-fluoro-9H-purin-9-yl)-2-ethynyl-3-hydroxytetrahydrofuran-2-yl)methyl methylcarbamate], in series [2], the “Stability in Human Plasma Formation of EFdA” value was “No”. The “Stability in Human Liver S9 Formation of EFdA” value in series [3] was “No”.

As for `C#C[C@]1(CO)O[C@@H](n2cnc3c(NCc4oc(=O)oc4C)nc(F)nc32)C[C@@H]1O` [Formula 6-A, 4-(((9-((2R,4S,5R)-5-ethynyl-4-hydroxy-5-(hydroxymethyl)tetrahydrofuran-2-yl)-2-fluoro-9H-purin-6-yl)amino)methyl)-5-methyl-1,3-dioxol-2-one], the “Stability in Human Plasma Formation of EFdA” value in series [2] was “No”. Moreover, in series [3], the “Stability in Human Liver S9 Formation of EFdA” value is reported as “Yes” and the “Conversion to the target drug” value was “can be converted to the target drug efficiently”.

Take `C#C[C@]1(COC(=O)NCCN(C)Cc2oc(=O)oc2C)O[C@@H](n2cnc3c(N)nc(F)nc32)C[C@@H]1O` [Formula 7-A, ((2R,3S,5R)-5-(6-amino-2-fluoro-9H-purin-9-yl)-2-ethynyl-3-hydroxytetrahydrofuran-2-yl)methyl (2-(methyl((5-methyl-2-oxo-1,3-dioxol-4-yl)methyl)amino)ethyl)carbamate]: the “Stability in Human Plasma Formation of EFdA” value in series [2] is on record as “No”. The “Stability in Human Liver S9 Formation of EFdA” value in series [3] is reported as “No”.
